From patent US20040162263A1, “Pharmaceutical formulations targeting specific regions of the gastrointesinal tract” (priority 2002, published 2004)

Assay: Pharmacokinetics of 9-nitro-camptothecin (9NC) in IVAP beagle dog model
Type: in vivo, beagle dogs
Conditions: for Mean AUC0-inf of 9-AC, Portal Vein AUC / Mean AUC0-inf of 9-AC, Systemic AUC: in ng·h/mL
Experimental: Blood samples were taken systemic and from the portal vein through a sampling/delivery vascular port previously implanted, then plasma was separated by centrifugation and kept frozen at −80° C. until analysis.
The samples were analyzed in a Perkin Elmer liquid chromatography-tandem mass spectrometer system with a PE LC-200 Micro pump, a PE200 Autosampler and a PE Sciex API 365 mass spectrometry unit.
Adult male beagle dogs (between the ages of 1 and 5 years and weighed between 9 and 16 kg) were obtained from Summit Ridge Farms, Susquehanna, Pa. The IVAP dogs were prepared by using a protocol similar to the one used for pentostatin experiments described above.
On the morning of the test, each animal is weighed and placed in the sling. An IV catheter is installed in the brachial vein for systemic blood sampling with a multiuse vacutainer needle adapter. This is flushed with heparinized saline (50 units/ml) to maintain potency between sampling. When necessary, a 20 g or 22 g right-angled Huber infusion set would be placed in the PV port and attached to a three-way stopcock for PV blood sampling.
The preparation of the dose depends on the route of study. In case of IV and PV administration, the drug was dissolved in dimethylacetamide (DMA) at 5 mg/ml and 0.5 ml of the DMA concentrate filtered through a […] filter into 4.5 ml of diluent (51% PEG-400 49% 0.001 M H3PO4) prior to administration to the brachial or portal vein. In the case of all other infusions, as well as oral administration, the drug was dissolved in vegetable oil to a concentration of 1 mg/ml and drawn up into dosing syringes. Animals were dosed IV at 0.1 and 0.2 mg/kg and 0.2 mg/kg for all the other routes of administration tested.
In intravascular studies, the dose is administered via a second catheter and the entire volume is delivered within 45 seconds.
In portal vein studies, the dose is also administered via an additional catheter over a 30 min time period.
In the case of oral dosages, the dose is delivered to the back of the mouth with an appropriate size syringe and is followed with 5 ml of tap water to assist swallowing and clearance of the dose from the mouth. Capsules were administered similarly by placing them at the back of the mouth and giving around 5 ml of water to facilitate swallowing.
For all other tests, the dosage is infused into the appropriate intestinal port and flushed with 2-3 ml of sterile saline. The dead space volume of the ports and tubing vary slightly between individuals, but are generally less than 0.5 ml total. […]
Systemic blood samples allow the calculation of AUC0-inf after oral capsule administration only and portal vein AUC for all the routes of administration.

[1] = 9-NC 0.2 mg/kg COLON port, 0.17 hr
[2] = 9-NC 0.2 mg/kg ileum port, 0.17 hr
[3] = 9-NC 0.2 mg/kg jejunal port, 0.17 hr
[4] = portal vein samples, 9-NC via COLON port
[5] = portal vein samples, 9-NC via ILEUM port
[6] = portal vein samples, 9-NC via JEJUNUM port
[7] = systemic samples, 9-NC via COLON port
[8] = systemic samples, 9-NC via ILEUM port
[9] = systemic samples, 9-NC via JEJUNUM port

CC[C@@]1(O)C(=O)OCc2c1cc1n(c2=O)Cc2cc3c(N)cccc3nc2-1 [9-AC, 9-amino-20(S)-camptothecin]
Mean plasma concentration, Portal Vein [1]: 0.50 ± 0.03 ng/mL | Mean plasma concentration, Systemic [1]: 0.42 ng/mL | Mean plasma concentration, Portal Vein [2]: 0.12 ng/mL | Mean plasma concentration, Systemic [2]: BQL | Mean plasma concentration, Portal Vein [3]: 0.10 ng/mL | Mean plasma concentration, Systemic [3]: BQL | Mean AUC0-inf of 9-AC, Portal Vein AUC (9-NC Intracolon): 20.81 ± 9.57 | Mean AUC0-inf of 9-AC, Systemic AUC (9-NC Intracolon): 36.91 ± 22.62 | Mean AUC0-inf of 9-AC, Systemic AUC (9-NC Intraileum): 21.23 ± 14.94 | Mean AUC0-inf of 9-AC, Portal Vein AUC (9-NC Intrajejunal): 50.26 ± 6.65 | Mean AUC0-inf of 9-AC, Systemic AUC (9-NC Intrajejunal): 24.41 ± 7.77 | Mean AUC0-inf of 9-AC, Portal Vein AUC (9-NC Intravenous (0.1 mg/kg)): 10.76 ± 3.02 | Mean AUC0-inf of 9-AC, Systemic AUC (9-NC Intravenous (0.1 mg/kg)): 12.14 ± 5.68 | Mean AUC0-inf of 9-AC, Portal Vein AUC (9-NC Intravenous (0.2 mg/kg)): 25.02 ± 9.87 | Mean AUC0-inf of 9-AC, Systemic AUC (9-NC Intravenous (0.2 mg/kg)): 21.04 ± 2.36 | Mean AUC0-inf of 9-AC, Portal Vein AUC (9-NC Oral - capsule): 66.15 ± 34.53 | Mean AUC0-inf of 9-AC, Systemic AUC (9-NC Oral - capsule): 44.74 ± 24.72 | Mean AUC0-inf of 9-AC, Portal Vein AUC (9-NC Oral - suspension): 34.43 ± 9.52 | Mean AUC0-inf of 9-AC, Systemic AUC (9-NC Oral - suspension): 20.31 ± 6.97 | Mean AUC0-inf of 9-AC, Systemic AUC (9-NC Portal vein): 4.73 ± 0.73 | Mean plasma concentration, Portal Vein (COLON port, 0.5 hr): 0.77 ± 0.42 ng/mL | Mean plasma concentration, Systemic (COLON port, 0.5 hr): 0.30 ± 0.29 ng/mL | Mean plasma concentration, Portal Vein (COLON port, 1 hr): 1.20 ± 0.60 ng/mL | Mean plasma concentration, Systemic (COLON port, 1 hr): 0.45 ± 0.20 ng/mL | Mean plasma concentration, Portal Vein (COLON port, 1.5 hr): 1.19 ± 0.97 ng/mL | Mean plasma concentration, Systemic (COLON port, 1.5 hr): 0.76 ± 0.12 ng/mL | Mean plasma concentration, Portal Vein (COLON port, 2 hr): 1.50 ± 0.66 ng/mL | Mean plasma concentration, Systemic (COLON port, 2 hr): 0.68 ± 0.11 ng/mL | Mean plasma concentration, Portal Vein (COLON port, 3 hr): 0.88 ± 0.19 ng/mL | Mean plasma concentration, Systemic (COLON port, 3 hr): 0.83 ± 0.36 ng/mL | Mean plasma concentration, Portal Vein (COLON port, 4 hr): 2.06 ± 1.69 ng/mL | Mean plasma concentration, Systemic (COLON port, 4 hr): 0.90 ± 0.45 ng/mL | Mean plasma concentration, Portal Vein (COLON port, 6 hr): 1.54 ± 1.06 ng/mL | Mean plasma concentration, Systemic (COLON port, 6 hr): 0.74 ± 0.06 ng/mL | Mean plasma concentration, Portal Vein (COLON port, 8 hr): 0.70 ng/mL | Mean plasma concentration, Systemic (COLON port, 8 hr): 1.14 ± 0.38 ng/mL | Mean plasma concentration, Systemic (COLON port, 10 hr): 0.77 ng/mL | Mean plasma concentration, Portal Vein (COLON port, 12 hr): 0.76 ng/mL | Mean plasma concentration, Systemic (COLON port, 12 hr): 1.11 ± 0.78 ng/mL | Mean plasma concentration, Portal Vein (COLON port, 24 hr): 0.77 ng/mL | Mean plasma concentration, Systemic (COLON port, 24 hr): 0.83 ± 0.00 ng/mL | half-life of metabolite (after IV 0.1 mg/kg 9-NC): 3.51 ± 1.87 h | half-life of metabolite (after IV 0.2 mg/kg 9-NC): 6.94 ± 2.87 h | time at which the metabolite reached the maximum concentration (after IV dosing of 9-NC): around 1 hr | Mean plasma concentration, Portal Vein (ileum port, 0.5 hr): 0.26 ng/mL | Mean plasma concentration, Systemic (ileum port, 0.5 hr): 0.11 ng/mL | Mean plasma concentration, Portal Vein (ileum port, 1 hr): 0.28 ± 0.06 ng/mL | Mean plasma concentration, Systemic (ileum port, 1 hr): 0.20 ng/mL | Mean plasma concentration, Portal Vein (ileum port, 1.5 hr): 0.75 ± 0.52 ng/mL | Mean plasma concentration, Systemic (ileum port, 1.5 hr): 0.23 ± 0.10 ng/mL | Mean plasma concentration, Portal Vein (ileum port, 2 hr): 0.99 ± 0.60 ng/mL | Mean plasma concentration, Systemic (ileum port, 2 hr): 0.52 ± 0.42 ng/mL | Mean plasma concentration, Portal Vein (ileum port, 3 hr): 1.80 ± 1.97 ng/mL | Mean plasma concentration, Systemic (ileum port, 3 hr): 1.40 ng/mL | Mean plasma concentration, Portal Vein (ileum port, 4 hr): 3.06 ± 3.74 ng/mL | Mean plasma concentration, Systemic (ileum port, 4 hr): 0.86 ± 0.67 ng/mL | Mean plasma concentration, Portal Vein (ileum port, 6 hr): 4.09 ± 4.44 ng/mL | Mean plasma concentration, Systemic (ileum port, 6 hr): 1.17 ± 0.75 ng/mL | Mean plasma concentration, Systemic (ileum port, 8 hr): 2.04 ± 0.20 ng/mL | Mean plasma concentration, Systemic (ileum port, 12 hr): 0.85 ± 0.95 ng/mL | Mean plasma concentration, Systemic (ileum port, 24 hr): 0.47 ng/mL | Mean plasma concentration, Portal Vein (jejunal port, 0.5 hr): 0.12 ng/mL | Mean plasma concentration, Systemic (jejunal port, 0.5 hr): BQL | Mean plasma concentration, Portal Vein (jejunal port, 1 hr): 0.16 ± 0.10 ng/mL | Mean plasma concentration, Systemic (jejunal port, 1 hr): 0.38 ng/mL | Mean plasma concentration, Portal Vein (jejunal port, 2 hr): 0.39 ± 0.04 ng/mL | Mean plasma concentration, Systemic (jejunal port, 2 hr): 0.32 ± 0.11 ng/mL | Mean plasma concentration, Portal Vein (jejunal port, 3 hr): 0.97 ± 0.76 ng/mL | Mean plasma concentration, Systemic (jejunal port, 3 hr): 0.47 ± 0.38 ng/mL | Mean plasma concentration, Portal Vein (jejunal port, 4 hr): 2.38 ± 2.20 ng/mL | Mean plasma concentration, Systemic (jejunal port, 4 hr): 0.89 ± 0.67 ng/mL | Mean plasma concentration, Portal Vein (jejunal port, 6 hr): 1.65 ± 1.13 ng/mL | Mean plasma concentration, Systemic (jejunal port, 6 hr): 1.59 ± 1.71 ng/mL | Mean plasma concentration, Portal Vein (jejunal port, 8 hr): 2.70 ± 0.59 ng/mL | Mean plasma concentration, Systemic (jejunal port, 8 hr): 1.71 ± 1.54 ng/mL | Mean plasma concentration, Systemic (jejunal port, 10 hr): 1.81 ± 1.09 ng/mL | Mean plasma concentration, Portal Vein (jejunal port, 12 hr): 2.62 ± 0.29 ng/mL | Mean plasma concentration, Systemic (jejunal port, 12 hr): 1.03 ± 0.05 ng/mL | Mean plasma concentration, Portal Vein (jejunal port, 24 hr): 0.66 ng/mL | Mean plasma concentration, Systemic (jejunal port, 24 hr): 0.45 ± 0.29 ng/mL | AUC0-INF (portal vein samples, 0.2 mg/kg 9-NC via COLON port): 20.81 ± 9.57 ng·h/mL | AUC0-INF (portal vein samples, 0.2 mg/kg 9-NC via JEJUNUM port): 50.26 ± 6.65 ng·h/mL | AUCLast [4]: 12.69 ± 5.10 ng·h/mL | CMAX [4]: 2.28 ± 1.59 ng/mL | MRT [4]: 7.54 ± 0.61 h | T1/2 [4]: 3.98 ± 0.25 h | TMAX [4]: 4.00 ± 2.00 h | AUCLast [5]: 11.83 ± 12.85 ng·h/mL | CMAX [5]: 4.10 ± 2.28 ng/mL | TMAX [5]: 6.00 ± 0.00 h | AUCLast [6]: 28.70 ± 12.16 ng·h/mL | CMAX [6]: 3.46 ± 1.22 ng/mL | MRT [6]: 13.97 ± 2.62 h | T1/2 [6]: 6.54 ± 1.30 h | TMAX [6]: 9.33 ± 4.62 h | AUC0-INF (systemic samples, 0.2 mg/kg 9-NC via COLON port): 36.91 ± 22.62 ng·h/mL | AUC0-INF (systemic samples, 0.2 mg/kg 9-NC via ILEUM port): 21.23 ± 14.94 ng·h/mL | AUC0-INF (systemic samples, 0.2 mg/kg 9-NC via JEJUNUM port): 24.41 ± 7.77 ng·h/mL | AUCLast [7]: 19.34 ± 11.92 ng·h/mL | CMAX [7]: 1.29 ± 0.63 ng/mL | MRT [7]: 57.62 ± 42.79 h | T1/2 [7]: 15.16 ± 14.34 h | TMAX [7]: 9.33 ± 2.31 h | AUCLast [8]: 18.69 ± 11.73 ng·h/mL | CMAX [8]: 2.04 ± 0.20 ng/mL | MRT [8]: 10.64 ± 5.14 h | T1/2 [8]: 4.09 ± 4.24 h | TMAX [8]: 8.00 ± 0.00 h | AUCLast [9]: 18.86 ± 5.73 ng·h/mL | CMAX [9]: 1.99 ± 1.39 ng/mL | MRT [9]: 15.64 ± 8.69 h | T1/2 [9]: 7.20 ± 5.98 h | TMAX [9]: 8.67 ± 2.31 h
